# According to publication PMC9959716, “Borate Transporters and SLC4 Bicarbonate Transporters Share Key Functional Properties” (Membranes, 2023):
# T1: ScBor1p (Saccharomyces cerevisiae, UniProt P53838)
# T1 construct: gene BOR1; full length, C-terminal deca-histidine tag, pRS423-derived plasmid, GAL1 promoter, expressed in S. cerevisiae BTSY2 (bor1 deletion)
# T1 sequence (P53838 1-576): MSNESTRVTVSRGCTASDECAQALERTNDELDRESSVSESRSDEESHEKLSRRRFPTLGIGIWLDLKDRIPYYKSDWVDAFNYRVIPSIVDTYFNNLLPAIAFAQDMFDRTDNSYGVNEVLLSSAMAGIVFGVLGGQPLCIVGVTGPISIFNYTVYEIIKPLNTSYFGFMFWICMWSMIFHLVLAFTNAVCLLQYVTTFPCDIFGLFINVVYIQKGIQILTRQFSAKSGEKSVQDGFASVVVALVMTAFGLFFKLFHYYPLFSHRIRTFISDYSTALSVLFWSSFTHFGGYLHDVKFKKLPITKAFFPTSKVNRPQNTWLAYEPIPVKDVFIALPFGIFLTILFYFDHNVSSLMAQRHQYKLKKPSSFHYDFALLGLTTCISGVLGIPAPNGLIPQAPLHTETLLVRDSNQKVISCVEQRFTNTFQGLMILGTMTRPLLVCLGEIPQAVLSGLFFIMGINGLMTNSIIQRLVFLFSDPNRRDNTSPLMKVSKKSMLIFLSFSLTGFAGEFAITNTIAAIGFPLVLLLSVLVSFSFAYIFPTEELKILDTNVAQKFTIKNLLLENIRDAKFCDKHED
# B1: S. cerevisiae borate transporter Bor1p (natural protein, UniProt P53838 1-576, looked up)
# chain: T1 sequence (P53838 1-576)
# notes: Borate transporter Bor1p of S. cerevisiae, wild type; Membrane protein; Monomer-dimer equilibrium; dimer promoted by lipids; also called ScBor1p; source: reconstituted into PC or PG proteoliposomes
# What was measured:
# ScBor1p = target: T1, ScBor1p; test: curcumin spectrophotometric quantification of intracellular borate (efflux) in yeast lysates; assay type: cell-based; settings: 1 mM boric acid for 90 min
# [1] = target: the molecule itself; test: cross-linking; purified ScBor1p reconstituted into PC (16:0/18:1) proteoliposomes, 1:20 protein:lipid (w:w), detergent removed with Bio-beads; 0.15% glutaraldehyde, 5 min, room temperature; 20 mM Mes pH 6.5, 100 mM NaCl, 2% glycerol; control with 5 min pre-treatment with 2% SDS
molecule,measurement,setting,value
OB(O)O [borate],curcumin spectrophotometric quantification of intracellular borate (efflux) in y,ScBor1p,Quantification of borate efflux activity in yeast cells expressing each indicated protein
B1,binding result,[1],binds
